Structures can show the parent of a compound that is named as a salt. Where two headings read alike, the source gives them in different places.
Legend:
Assay type in all cases: cell-based, human
FaDu cells = assay: Inhibition test for sphere-forming ability of cancer cells (Test Example 1), FaDu; details: Homo sapiens, concentration for 50% inhibition of cell proliferation, read-out: IC50 (μmol/L) FaDu (Sphere IC50 value)
Text: (§1) The reliable methods established for measuring the self-renewal ability of cells which is one of the CSC's properties include a method for measuring the sphere-forming ability of cancer cells in non-adherent condition in the absence of serum (Cancer Res 65, 5506-5511 (2005)). Human colorectal cancer-derived HCT-116 cells, human colon-adenocarcinoma-derived HT-29 cells, and human pharyngeal cancer-derived FaDu cells were available from American Type Culture Collection (ATCC). HCT-116 cells and HT-29 cells were cultured at 37° C. under 5% CO2 using the McCoy's 5a medium containing 10% fetal bovine serum (FBS) and 1% penicillin/streptomycin, and FaDu cells were cultured at 37° C. under 5% CO2 using the MEM medium containing 10% FBS, 1% non-essential amino acid, 1% sodium pyruvate, and 1% penicillin/streptomycin. HCT-116 cells, HT-29 cells, and FaDu cells were seeded in a 384 Well Black Clear Bottom Ultra-Low Attachment Microplate (Corning Cat. No. 3827) in an amount of 350-800 cells/well using the DMEM/F12 medium containing 2% B27 supplement (GIBCO), 20 ng/mL epidermal growth factor (EGF) (peprotech), 10 ng/mL basic fibroblast growth factor (bFGF) (peprotech), 5 μg/mL insulin (Sigma), and 1% penicillin/streptomycin. Each test compound was added into each well to adjust the final concentration of DMSO to 0.1%, and the cells were cultured for 4 days. The number of viable cells in each well was then measured with CellTiter-Glo® Luminescent Cell Viability Assay (Promega) to calculate the concentration of each test compound for 50% inhibition of cell proliferation (Sphere IC50 value; μmol/L).
(§2) The experiment of Test Example 1 was performed for each compound of each Example. The concentration of each test compound for 50% inhibition of cell proliferation (Sphere IC50 value; μmol/L) is shown in the following Table.

HCT-116 cells = assay: Inhibition test for sphere-forming ability of cancer cells (Test Example 1), HCT-116; details: HCT-116 cells, concentration for 50% inhibition of cell proliferation, read-out: IC50 (μmol/L) HCT-116 (Sphere IC50 value)
Text: as §1, §2

HT-29 cells = assay: Inhibition test for sphere-forming ability of cancer cells (Test Example 1), HT-29; details: concentration for 50% inhibition of cell proliferation, read-out: IC50 (μmol/L) HT-29 (Sphere IC50 value)
Text: as §1, §2

Compound | IC50 (FaDu cells) | IC50 (HCT-116 cells; Homo sapiens) | IC50 (HT-29 cells; Homo sapiens) | IC50 (HCT-116 cells) | IC50 (HT-29 cells)
CCOc1ccc(/C=C/C(=O)Nc2cn(Cc3cccc(Cl)c3)cn2)cn1 [Example 1, (E)-N-(1-(3-Chlorobenzyl)-1H-imidazol-4-yl)-3-(6-ethoxypyridin-3-yl)acrylamide] | 0.05 µmol/L | 0.32 µmol/L | 0.02 µmol/L |  | 
Nc1ccc(/C=C/C(=O)Nc2cn(Cc3cccc(Cl)c3)cn2)cc1 [Example 3, (E)-3-(4-Aminophenyl)-N-(1-(3-chlorobenzyl)-1H-imidazol-4-yl)acrylamide Dihydrochloride] | 3.13 µmol/L | 6.76 µmol/L | 3.58 µmol/L |  | 
Cn1cc(/C=C/C(=O)Nc2cn(Cc3cccc(Cl)c3)cn2)ccc1=O [Example 12] | 1.44 µmol/L | 7.54 µmol/L | 0.92 µmol/L |  | 
CS(=O)(=O)c1ccc(/C=C/C(=O)Nc2cn(Cc3cccc(Cl)c3)cn2)cc1 [Example 13] | 2.84 µmol/L | 8.72 µmol/L | 0.74 µmol/L |  | 
Nc1ccc(/C=C/C(=O)Nc2cn(Cc3cccc(Cl)c3)cn2)cn1 [Example 19, (E)-3-(6-Aminopyridin-3-yl)-N-(1-(3-chlorobenzyl)-1H-imidazol-4-yl)acrylamide] | 0.66 µmol/L | 0.89 µmol/L | 0.6 µmol/L |  | 
CC(=O)Nc1ccc(/C=C/C(=O)Nc2cn(Cc3cccc(Cl)c3)cn2)cn1 [Example 20, (E)-3-(6-Acetylaminopyridin-3-yl)-N-(1-(3-chlorobenzyl)-1H-imidazol-4-yl)acrylamide] | 0.06 µmol/L | 0.45 µmol/L | 0.01 µmol/L |  | 
C=Cc1ncc(C(=O)Nc2cn(Cc3cccc(C(F)(F)F)c3)cn2)cc1F [Example 99, 6-Ethenyl-5-fluoro-N-{1-[3-(trifluoromethyl)benzyl]-1H-imidazol-4-yl}nicotinamide] |  | 6.12 µmol/L | 2.52 µmol/L |  | 
O=C(Nc1cn(Cc2cccc(C(F)(F)F)c2)cn1)c1cc2ccccc2cn1 [Example 178] |  |  |  | 9.6 µmol/L | 8.13 µmol/L
O=C(Nc1cn(Cc2cccc(C(F)(F)F)c2)cn1)c1cccnn1 [Example 182] |  |  |  | > 10 µmol/L | 5.6 µmol/L
O=C(Nc1cn(Cc2cccc(C(F)(F)F)c2)cn1)c1ccc2ncccc2n1 [Example 184] |  |  |  | 8.16 µmol/L | 9.07 µmol/L
COc1ccc(C(=O)Nc2cn(Cc3cccc(Cl)c3)cn2)c(OC)n1 [Example 189] |  |  |  | 4.94 µmol/L | 4.64 µmol/L
O=C(Nc1cn(Cc2cccc(C(F)(F)F)c2)cn1)c1cc2cnccc2s1 [Example 194] |  |  |  | 6.05 µmol/L | 2.84 µmol/L
O=C(Nc1cn(Cc2cccc(C(F)(F)F)c2)cn1)c1cnc(Br)c(F)c1 [Example 227] |  |  |  | 9.06 µmol/L | 8 µmol/L
COc1ccc(OC)c(/C=C/C(=O)Nc2cn(Cc3cccc(C(F)(F)F)c3)cn2)c1 [Example 233] |  | 4.35 µmol/L | 5.46 µmol/L |  | 
O=C(/C=C/c1cc(O)ccc1O)Nc1cn(Cc2cccc(C(F)(F)F)c2)cn1 [Example 235, (2E)-3-(2,5-Dihydroxyphenyl)-N-{1-[3-(trifluoromethyl)benzyl]-1H-imidazol-4-yl}prop-2-enamide Hydrochloride] |  | 3.84 µmol/L | 8.77 µmol/L |  | 
O=C(Nc1cn(Cc2cccc(C(F)(F)F)c2)cn1)c1ccc(-c2ccc(CO)nc2)cc1 [Example 246, 4-[6-(Hydroxymethyl)pyridin-3-yl]-N-{-[3-(trifluoromethyl)benzyl]-1H-imidazol-4-yl}benzamide] |  | 6.72 µmol/L | 6.36 µmol/L |  | 
O=C(Nc1cn(Cc2cccc(C(F)(F)F)c2)cn1)c1ccccc1CO [Example 250, 2-(Hydroxymethyl)-N-{1-[3-(trifluoromethyl)benzyl]-1H-imidazol-4-yl}benzamide] |  | > 10 µmol/L | 8.19 µmol/L |  | 
COc1ccc(NC(=O)c2cn(Cc3cc(F)c(F)c(F)c3)cn2)cn1 [Example 254] |  |  |  | > 10 µmol/L | 6.45 µmol/L
COc1ccc(NC(=O)c2cn(Cc3cccc(Cl)c3)cn2)cn1 [Example 263] |  |  |  | > 10 µmol/L | 8.49 µmol/L
